Test system: Wild-type Caenorhabditis elegans
Assay: Experiment on the lifespan of Caenorhabditis elegans
Assay type: in vivo
Conditions: for longest lifespan of the nematodes / Median survival time (time to half death) / day when death occurs compared with the control group / time to half death compared with the control group (significance) / longest lifespan, days longer than that of the control group / time to half death longer than in the control group: 10 nM; for Median survival time (time to half death): Kaplan-Meier, Median ± SE; for day when death occurs compared with the control group / time to half death compared with the control group (significance): in words; for longest lifespan, days longer than that of the control group / time to half death longer than in the control group: vs control group
Experimental: Synchronization of Caenorhabditis elegans: The NGM plate with a moderate nematode density was selected. The larvae at the L4 stage were picked with a pick needle for about 20 in total and transferred into the blank NGM plate. After they developed into adults and laid the first batch of eggs, all the adults were picked out. About 12 hours later, the eggs hatched into larvae, to obtain the synchronized larvae at the L1 stage. Preliminary preparation for the experiment on the lifespan of Caenorhabditis elegans: The NGM was washed with 1 mL of M9 buffer. The resulting buffer containing the larvae at the L1 stage was collected into an EP tube, placed in a chromatographic cabinet at 4° C. for 5 min, and centrifuged at 1500× g/4° C. for 3 min. The supernatant was removed. After 100 μL of buffer was resuspended, the nematodes were counted under a microscope, and the nematodes were diluted to a concentration of 30 worms/10 μL. 10 μL of diluted nematodes were added into the NGM plate inoculated with E. coli OP50, and the nematodes were counted under the microscope to ensure that there were about 30 nematodes. The NGM plate was placed in a constant temperature incubator to culture. Experiment on the lifespan of Caenorhabditis elegans: After the nematodes at the L1 stage developed to the L4 stage, 100 μL of 15.6 μg/mL 5-FUDR was added for inhibition of Caenorhabditis elegans from oviposition. After the nematodes developed to adults, the dosing started, and the nematodes were divided into a control group and a 10 nM dose group, which was recorded as day 1 of the lifespan experiment. After that, the dosing was carried out every day, the numbers of nematodes that survived, died, and unexpectedly died were observed and recorded every day, and the status of the nematodes was observed and recorded, until the last nematode died. […] The dead nematodes need to be picked out of the plate. The E. coli OP50 needs to be added in time when exhausted. Kaplan-Meier statistical analysis was carried out on the data, and the data results were expressed as Median±SE. Compared with the control group, *P<0.05 represents a significant difference, and **P<0.01 represents a very significant difference.

PPTTKFAA [WD1]
longest lifespan of the nematodes: 31 days | Median survival time (time to half death): 21.000 days | day when death occurs compared with the control group: no significant difference | time to half death compared with the control group (significance): does not have a significant difference | longest lifespan, days longer than that of the control group: 3 days | time to half death longer than in the control group: 1 days | Number of remaining nematodes (day 0, 10 nM): 29 | Number of remaining nematodes (day 1, 10 nM): 29 | Number of remaining nematodes (day 2, 10 nM): 29 | Number of remaining nematodes (day 3, 10 nM): 29 | Number of remaining nematodes (day 4, 10 nM): 29 | Number of remaining nematodes (day 5, 10 nM): 29 | Number of remaining nematodes (day 6, 10 nM): 29 | Number of remaining nematodes (day 7, 10 nM): 29 | Number of remaining nematodes (day 8, 10 nM): 29 | Number of remaining nematodes (day 9, 10 nM): 29 | Number of remaining nematodes (day 10, 10 nM): 28 | Number of remaining nematodes (day 11, 10 nM): 27 | Number of remaining nematodes (day 12, 10 nM): 24 | Number of remaining nematodes (day 13, 10 nM): 24 | Number of remaining nematodes (day 14, 10 nM): 22 | Number of remaining nematodes (day 15, 10 nM): 20 | Number of remaining nematodes (day 16, 10 nM): 20 | Number of remaining nematodes (day 17, 10 nM): 19 | Number of remaining nematodes (day 18, 10 nM): 19 | Number of remaining nematodes (day 19, 10 nM): 16 | Number of remaining nematodes (day 20, 10 nM): 15 | Number of remaining nematodes (day 21, 10 nM): 14 | Number of remaining nematodes (day 22, 10 nM): 12 | Number of remaining nematodes (day 23, 10 nM): 10 | Number of remaining nematodes (day 24, 10 nM): 9 | Number of remaining nematodes (day 25, 10 nM): 8 | Number of remaining nematodes (day 26, 10 nM): 6 | Number of remaining nematodes (day 27, 10 nM): 5 | Number of remaining nematodes (day 28, 10 nM): 4 | Number of remaining nematodes (day 29, 10 nM): 1 | Number of remaining nematodes (day 30, 10 nM): 1 | Number of remaining nematodes (day 31, 10 nM): 1 | Number of remaining nematodes (day 32, 10 nM): 0 | Number of remaining nematodes (day 33, 10 nM): 0 | Number of remaining nematodes (day 34, 10 nM): 0 | Number of remaining nematodes (day 35, 10 nM): 0 | Number of remaining nematodes (day 36, 10 nM): 0 | Number of remaining nematodes (day 37, 10 nM): 0 | Number of remaining nematodes (day 38, 10 nM): 0

PTTKFAA [WD2]
longest lifespan of the nematodes: 32 days | Median survival time (time to half death): 21.000 days | day when death occurs compared with the control group: no significant difference | time to half death compared with the control group (significance): does not have a significant difference | longest lifespan, days longer than that of the control group: 4 days | time to half death longer than in the control group: 1 days | Number of remaining nematodes (day 0, 10 nM): 26 | Number of remaining nematodes (day 1, 10 nM): 26 | Number of remaining nematodes (day 2, 10 nM): 26 | Number of remaining nematodes (day 3, 10 nM): 26 | Number of remaining nematodes (day 4, 10 nM): 26 | Number of remaining nematodes (day 5, 10 nM): 26 | Number of remaining nematodes (day 6, 10 nM): 26 | Number of remaining nematodes (day 7, 10 nM): 26 | Number of remaining nematodes (day 8, 10 nM): 26 | Number of remaining nematodes (day 9, 10 nM): 26 | Number of remaining nematodes (day 10, 10 nM): 26 | Number of remaining nematodes (day 11, 10 nM): 25 | Number of remaining nematodes (day 12, 10 nM): 23 | Number of remaining nematodes (day 13, 10 nM): 23 | Number of remaining nematodes (day 14, 10 nM): 22 | Number of remaining nematodes (day 15, 10 nM): 21 | Number of remaining nematodes (day 16, 10 nM): 21 | Number of remaining nematodes (day 17, 10 nM): 20 | Number of remaining nematodes (day 18, 10 nM): 18 | Number of remaining nematodes (day 19, 10 nM): 16 | Number of remaining nematodes (day 20, 10 nM): 14 | Number of remaining nematodes (day 21, 10 nM): 13 | Number of remaining nematodes (day 22, 10 nM): 11 | Number of remaining nematodes (day 23, 10 nM): 9 | Number of remaining nematodes (day 24, 10 nM): 9 | Number of remaining nematodes (day 25, 10 nM): 7 | Number of remaining nematodes (day 26, 10 nM): 7 | Number of remaining nematodes (day 27, 10 nM): 5 | Number of remaining nematodes (day 28, 10 nM): 3 | Number of remaining nematodes (day 29, 10 nM): 2 | Number of remaining nematodes (day 30, 10 nM): 1 | Number of remaining nematodes (day 31, 10 nM): 1 | Number of remaining nematodes (day 32, 10 nM): 1 | Number of remaining nematodes (day 33, 10 nM): 0 | Number of remaining nematodes (day 34, 10 nM): 0 | Number of remaining nematodes (day 35, 10 nM): 0 | Number of remaining nematodes (day 36, 10 nM): 0 | Number of remaining nematodes (day 37, 10 nM): 0 | Number of remaining nematodes (day 38, 10 nM): 0

TTKFAA [WD3]
longest lifespan of the nematodes: 33 days | Median survival time (time to half death): 21.000 days | day when death occurs compared with the control group: no significant difference | time to half death compared with the control group (significance): does not have a significant difference | longest lifespan, days longer than that of the control group: 5 days | time to half death longer than in the control group: 1 days | Number of remaining nematodes (day 0, 10 nM): 28 | Number of remaining nematodes (day 1, 10 nM): 28 | Number of remaining nematodes (day 2, 10 nM): 28 | Number of remaining nematodes (day 3, 10 nM): 28 | Number of remaining nematodes (day 4, 10 nM): 28 | Number of remaining nematodes (day 5, 10 nM): 28 | Number of remaining nematodes (day 6, 10 nM): 28 | Number of remaining nematodes (day 7, 10 nM): 28 | Number of remaining nematodes (day 8, 10 nM): 28 | Number of remaining nematodes (day 9, 10 nM): 28 | Number of remaining nematodes (day 10, 10 nM): 28 | Number of remaining nematodes (day 11, 10 nM): 27 | Number of remaining nematodes (day 12, 10 nM): 27 | Number of remaining nematodes (day 13, 10 nM): 27 | Number of remaining nematodes (day 14, 10 nM): 22 | Number of remaining nematodes (day 15, 10 nM): 20 | Number of remaining nematodes (day 16, 10 nM): 20 | Number of remaining nematodes (day 17, 10 nM): 20 | Number of remaining nematodes (day 18, 10 nM): 20 | Number of remaining nematodes (day 19, 10 nM): 17 | Number of remaining nematodes (day 20, 10 nM): 15 | Number of remaining nematodes (day 21, 10 nM): 14 | Number of remaining nematodes (day 22, 10 nM): 11 | Number of remaining nematodes (day 23, 10 nM): 10 | Number of remaining nematodes (day 24, 10 nM): 9 | Number of remaining nematodes (day 25, 10 nM): 6 | Number of remaining nematodes (day 26, 10 nM): 6 | Number of remaining nematodes (day 27, 10 nM): 5 | Number of remaining nematodes (day 28, 10 nM): 4 | Number of remaining nematodes (day 29, 10 nM): 2 | Number of remaining nematodes (day 30, 10 nM): 1 | Number of remaining nematodes (day 31, 10 nM): 1 | Number of remaining nematodes (day 32, 10 nM): 1 | Number of remaining nematodes (day 33, 10 nM): 1 | Number of remaining nematodes (day 34, 10 nM): 0 | Number of remaining nematodes (day 35, 10 nM): 0 | Number of remaining nematodes (day 36, 10 nM): 0 | Number of remaining nematodes (day 37, 10 nM): 0 | Number of remaining nematodes (day 38, 10 nM): 0
